Measured values published in US11800867B2, “Methods of repelling biting arthropods, reducing pathogen spread and treating arthropod infestation” (priority 2016, dated 2023).
Several values for one entry are separate records, joined by “and”; a condition that tells them apart may be missing. Equal values may be shown once.

What was measured:
Format in all cases: in vivo
[1] = test system: bed bugs (Cimex lectularius); assay: Filter paper choice test of repelling action (Example 6)
Method: (§1) An in vitro laboratory trial was required to assess the repelling action of nootkatone applied to filter paper against cat fleas (Ctenocephalides felis), deer ticks (Ixodes scapularis), bed bugs (Cimex lectularius), and termites (Reticulitermes flavipes) in a choice test design.
(§2) The sponsor provided a sample of nootkatone (98%), which was diluted in ethanol to a 0.5% concentration. The treatment was applied to filter paper at a rate of 1 mL for a 9 cm filter paper disc, and a rate of 1.9 mL for a 15 cm filter paper disc. A negative control group, consisting of untreated filter paper, was also assessed for comparison purposes.
Bed bugs: Petri dishes (9 cm) were modified by cutting a circular hole in the bottom of a clean petri plate. Fine mesh nylon cloth was fastened to the bottom using adhesive, covering the hole. The petri plate was then inverted, with the screened bottom serving as the top. Treated and untreated filter papers were cut in half and fitted into the new bottom of the test containers. Treated replicates received one half treated and one half untreated filter paper; negative control replicates received only untreated filter paper.
Bed bugs: Bed bugs were placed in the center of each test container and covered with the fine-mesh lid. The containers were kept in darkness at ambient laboratory conditions for 24 hours. At the end of the exposure period, the distribution (on or under each filter paper) of bed bugs was recorded.
The number of insects in each location was converted to a percentage, for which the average and standard error were calculated across all five replicates.
Percent repellency was calculated with the following formula: % repellency=(1−((t/T)/(c/C)))*100 • Where t=number of insects on treated side of treated arena • T=total number of insects in treated arena • c=average number of insects on right side of untreated arenas • C=average total number of insects in untreated arenas

[2] = test system: deer ticks (Ixodes scapularis); assay: Treated filter paper knockdown (KD) and mortality trial (Example 4); conditions: Nootkatone 1% in ethanol on filter paper
Method: (§3) A laboratory trial was conducted to assess the efficacy of nootkatone applied to filter paper against aphids (Schizaphis gramium), dust mites (Dermatophagoides sp.), termites (Reticulitermes flavipes), deer ticks (Ixodes scapularis), biting midges (Culicoides sp.), fire ants (Solenopsis invicta), and mosquitoes (Aedes aegypti and Culex), in terms of knockdown (KD) and mortality. One concentration (1% in ethanol) of nootkatone was assessed for most species, but three concentrations (0.25%, 0.5%, and 1% in ethanol) were assessed for mosquitoes. A negative control group, consisting of filter paper treated with ethanol, was also assessed for comparison purposes for each species.
(§4) Test systems were introduced to treated filter paper, allowed to dry, and then introduced into treatment chamber, where treated arthropods were monitored at intervals up to 72 hours. If 100% mortality was obtained prior to 72 hours, the individual study was halted.
(§5) Deer Ticks and Dust mites—5 replicates of 10 ticks or 35 dust mites were tested per treatment. Envelopes made from treated 2.5 inch (6.35 cm) filter paper squares served as the containers. After the ticks or dust mites were placed inside the envelopes, and the openings were sealed using small binder clips.
(§6) Readings were discontinued if treated mortality reaches […], or control mortality exceeds 20%.

[3] = test system: dust mites (Dermatophagoides sp.); assay: as above; conditions: Nootkatone 1% in ethanol on filter paper
Method: as §3, §4, §5, §6

[4] = test system: mosquitoes (Aedes aegypti and Culex); assay: Treated filter paper knockdown (KD) and mortality trial (Example 4), statements on both mosquito species
Method: as §3, §4
Midges and mosquitoes—5 replicates of 10 insects per treatment were tested. Inverted 10 ounce (295 ml) clear plastic cups with a 0.5 inch (1.27 cm) hole burned into the center of the bottom, and with the sides coated with Fluon® was used at the treatment containers. The bottoms of the containers consisted of Petri dish lids 3.54 inches (9.0 cm) in diameter lined with a treated filter paper circle the same diameter. The cup was placed over the filter paper in the lid and both were secured in place using 2 rubber bands. The insects were introduced through the hole in the cup, and a plastic disc was placed over the opening to prevent escapes.
as §6

[5] = test system: deer ticks (Ixodes scapularis); assay: Filter paper choice test of repelling action (Example 6)
Method: as §1, §2
Deer ticks: Treated and untreated filter papers were cut in half and fitted into the bottom of a 9 cm petri dish. Treated replicates received one half treated and one half untreated filter paper; negative control replicates received untreated filter paper only. The petri dish arenas were then placed on their sides, with the control halves positioned at the lower half and the treated half at the upper half.
Deer ticks: Ticks were introduced, one at a time, to the bottom half of the control (untreated) arena, and monitored to see how long it took them to get to the upper “treated” side of the arena. Ticks were allowed up to three minutes to cross into the upper area of each arena. […] Once a tick had crossed into the upper side of the control arena, it was gently picked up with forceps and placed in the bottom half of the treated arena, and the procedure repeated. Ticks were considered “not repelled” if they crossed onto the treated side of the treated arena within three minutes.
The number of repelled ticks for each replicate was added together, and the average and standard error were calculated across all five replicates. The numbers were divided by the total number of ticks per replicate to obtain the percent repellency.

[6] = 0.5% nootkatone in ethanol on filter paper
[7] = 0.5% nootkatone in ethanol, 24 Hours post introduction, Replicates 1-5
[8] = 0.5% nootkatone in ethanol, 10 ticks per replicate, three minutes, Replicates 1-5

In the case of `C=C(C)[C@@H]1CCC2=CC(=O)C[C@@H](C)[C@]2(C)C1` [Nootkatone, nootkatone], the “Repellency (conclusion in words)” value [1, 6] is reported as “highly repellent”, the “Raw data: number of bed bugs on Treated half of treated arena, per replicate” value [1, 7] is reported as 0 (4×) and 1 and the “Raw data: number of bed bugs on Untreated half of treated arena, per replicate” value [1, 7] is reported as 10 (4×) and 9. For the same molecule, the “Calculated percent repellency (average ± SE)” value ([1]; nootkatone (98%) 0.5% in ethanol on filter paper, half treated, half untreated arena, 24 hours) was 93.9 ± 6.1%, the “Time required for greater than 90% killing” value [2] was 72 h and the “Means Affected” value ([2]; 24 hours post introduction) was 100.0%. The “Means Dead” value ([2]; 24 hours post introduction) was 36.0%, the “Means KD” value ([2]; 24 hours post introduction) was 62.0% and the “Means Affected” value ([2]; 48 hours post introduction) was 100.0%. The “Means Dead” value ([2]; 48 hours post introduction) was 82.0%, the “Means KD” value ([2]; 48 hours post introduction) was 16.0% and the “Means Affected” value ([2]; 72 hours post introduction) was 100.0%. The “Means Dead” value ([2]; 72 hours post introduction) was 100% and 98%, the “Means KD” value ([2]; 72 hours post introduction) was 0.0% and the “Time required for greater than 90% killing” value [3] was 72 h. The “Means Affected” value ([3]; 72 hours post introduction) was 100.0%, the “Means Dead” value ([3]; 72 hours post introduction) was 100% and the “Means KD” value ([3]; 72 hours post introduction) was 0.0%. The Mortality in mosquitoes ([4]; Nootkatone 0.25% in ethanol on filter paper, the lowest tested concentration) was “less than 80%”, the “Time required for greater than 90% killing” value ([4]; Nootkatone 1% in ethanol on filter paper) was 24 h and the “Affected (knockdown+mortality) mosquitoes in both species” value ([4]; Nootkatone 1% in ethanol on filter paper, by 8 hours post treatment) was “at least 80%”. For the same molecule, the “Mortality in mosquitoes during the experimental duration” value ([4]; Nootkatone at 1% concentration in ethanol on filter paper, both mosquito species) was 94-100%, the “Mortality in both mosquito species” value ([4]; nootkatone 0.5% in ethanol on filter paper, by 72 hours post treatment) was 82-95% and the “Repellency (conclusion in words)” value [5, 6] was “highly repellent”. The “Raw data: number of ticks Not repelled, per replicate” value [5, 8] was 0 (3×) and 1 (2×), the “Raw data: number of ticks Repelled, per replicate” value [5, 8] was 9 (2×) and 10 (3×) and the “Calculated percent repellency (average ± SE)” value ([5]; nootkatone (98%) 0.5% in ethanol on filter paper, treated upper half, up to three minutes to cross) was 96.0 ± 2.4%.
